A word on the pKd: it is the negative decadic logarithm of the Kd, by convention in mol/L. As usually defined, the solubility is how much of the substance goes into solution per volume. Low readings indicate little dissolved substance, high ones much dissolved substance. The term inhibition denotes how much of the control response was suppressed.

pKd: −log10 of the molar value. Bounds are passed on as bounds.

We go through 17 compounds from ChEMBL document CHEMBL3751775, “Identification of B. anthracis N(5)-carboxyaminoimidazole ribonucleotide mutase (PurE) active site binding compounds via fragment library screening” (Bioorg Med Chem, 2016).

Data set [1] can be described thus: Binding affinity to Bacillus anthracis PurE by intrinsic tryptophan fluorescence analysis. The note with it: for pKd: read-out: Kd.
The nature of data set [2]: Binding affinity to Bacillus anthracis PurE by Surface Plasmon Resonance analysis.
Data set [3] in a line: Aqueous solubility of the compound. The format is physicochemical.
Data set [4] can be described thus: Binding affinity to Escherichia coli PurE by Surface Plasmon Resonance analysis.
In data set [5] the test system is Bacillus anthracis. Kind of data set: Inhibition of Bacillus anthracis PurE using CAIR as substrate at 25 uM preincubated for 5 mins followed by substrate addition by UV spectroscopic analysis.
Data set [6] concerns Bacillus anthracis. As to the kind of experiment: Inhibition of Bacillus anthracis PurE using CAIR as substrate at 100 uM preincubated for 5 mins followed by substrate addition by UV spectroscopic analysis.

For `COc1ccc2ncc(N)cc2c1`, the negative logarithm of the Kd (pKd) in data set [1] is 4.13; in data set [2], 3.58.

In the case of `O=C(O)c1ccc(O)c(O)c1` [PROTOCATECHUIC ACID], the pKd in data set [2] is 3.56. Also, the solubility in data set [3] was over 1200 µM.

As to `CCOc1ccccc1C(=S)N1CCOCC1`, the values for the negative-log Kd (pKd) in data set [1] and in data set [2] were 4.21 and 4.14, respectively.

Take `Nc1c([N+](=O)[O-])ncn1[C@@H]1O[C@H](COP(=O)(O)O)[C@@H](O)[C@H]1O`: the pKd in data set [4] was 7.07.

Turning to `Cc1cc(C(=O)Nc2cccc(F)c2)no1`, the values for the negative logarithm of the Kd (pKd) in data set [1] and in data set [2] were 4.02 and 4.10, respectively.

As to `COc1ccc(-c2cc(N)[nH]n2)cc1`, the pKd in data set [1] was 3.67; in data set [2] it was 3.83.

Take `CCc1ccc(C(=O)Nc2nncs2)s1`: the pKd in data set [1] is 4.70; in data set [2] it was 4.87. For the same compound, in data set [5], the inhibition came to 49%.

Take `CCOc1cc(CO)c(Br)cc1OC`: the negative logarithm of the Kd (pKd) in data set [1] was 3.44; in data set [2], 3.80.

On to `NC(=S)N1CCc2ccccc21`, for which the negative-log Kd (pKd) in data set [1] and in data set [2] was 4.45 each time.

In turn, `O=C(O)c1cc2cc(F)ccc2[nH]1` [5-FLUOROINDOLE-2-CARBOXYLIC ACID] gave a negative-log Kd (pKd) in data set [2] of 3.63.

With `Oc1cc(Cl)c(Cl)cc1O`, the negative-log Kd (pKd) in data set [1] was 3.74; in data set [2] it was 3.99.

`Cc1cnc(NC(=O)c2ccoc2C)s1`: the figures for the pKd in data set [1] and in data set [2] were 4.40 and 4.69, respectively.

In the case of `NCc1cc(-c2ccccc2Cl)on1`, the pKd in data set [1] was 3.40; in data set [2] it was 3.35.

Turning to `Cc1ccc(C(N)c2ccncc2)cc1` (stereo not drawn), the Kd result in data set [1] was “Not Active”. The compound further gave a negative logarithm of the Kd (pKd) in data set [2] of 3.15.

On to `Cc1ccc(C(=S)c2nnns2)cc1`, for which the pKd in data set [1] was 4.09; in data set [2] it was 4.22. In data set [6], this compound registered an inhibition of 36%.

Regarding `Nc1nn2c(-c3ccccc3)nnc2s1`, the values for the negative logarithm of the Kd (pKd) in data set [1] and in data set [2] were 3.22 and 3.92, respectively.

Regarding `Nc1cncn1[C@@H]1O[C@H](COP(=O)(O)O)[C@@H](O)[C@H]1O`, the pKd in data set [1] is 3.55.
